Source: patent US10047087B2, “Substituted pyrazolo[1,5-A] pyridine as tropomyosin receptor kinase (TrK) inhibitors” (Dr. Reddy's Laboratories Ltd., priority 2011, dated 2018)
Where two headings read alike, the source gives them in different places.

How the values were obtained:
[1] = Metabolic stability using Human Liver Microsomes (HLM); assay type: in vitro ADME; conditions: pooled human liver microsomes, compound 1 μM, 0.3 mg/ml microsomal protein, 1 mM NADPH
Method: Stability Protocol: Metabolic Stability Using Rat Liver Microsomes (RLM) and Human Liver Microsomes (HLM).
This assay was performed using pooled male rat liver microsomes (In-house prepared as per SOP), Pooled Human liver microsomes (XENOTECH; Batch No— H0630-1110189)). The 100 μl reaction contains the compounds at 1 μM, 0.3 mg/ml microsomal protein and both the co-factors (1 mM NADPH) in buffer and the mixture was incubated at different time points (0, 15, 30, 45, 60, & 90 minutes). The reaction was stopped by the addition of equal volume of acetonitrile containing internal standard (Telmesartin). The precipitated protein was removed by centrifugation and the supernatant were analyzed LC/MS-MS method. The percent parent compound remaining was quantified by analysis using following formula (% parent compound remaining=(peak area at Time x/peak area at T0)×100. The intrinsic clearance was calculated using the following formula. CLint,app: (0.693/in vitro t½)(incubation volume/mg of microsomal protein)(45 mg microsomal protein/gram of liver)(20^a g of liver/kg body weight) • a: 20 and 45 g of liver/kg of body weight were used for human and rat, respectively (Lu C et al., DMD, 2006). Bio-analysis: It was performed in Multiple Reaction Monitoring mode (negative mode) using Applied Biosystems API 4000 coupled to Agilent Technologies 1100 series HPLC on a reverse phase column (Zorbax Eclipse XDB C18, 50×4.6 mm, 5 μm). Celecoxib was used as internal standard both in in-vitro and in-vivo experiments. Mobile phase used 0.05% […] water and acetonitrile (10:90) with a flow rate of 0.6 ml/minute. The injection volume was kept as 10 μl.

[2] = target: T1, TrkA kinase (Homo sapiens, UniProt P04629); assay: In vitro TrkA inhibitory activity using TR-FRET assay; assay type: biochemical; conditions: 5 ng TrkA, 500 μM ATP
T1 construct: purchased Upstate, USA
Method: Determination of In Vitro TrkA Inhibitory Activity Using TR-FRET Assay
Compounds were screened in the TR-FRET assay with TrkA kinase. 5 ng of TrkA [Upstate, USA] kinase was used for assay. The compound was incubated with the kinase for 30 minutes at 20-35° C. After the incubation, substrate mix [40 nM Ultra light poly GT (Perkin Elmer, USA) and 500 μM ATP] was added. The above reaction was stopped by the addition of 40 mM EDTA after 30 minutes. The Eu-labelled antiphospho-tyrosine antibody [Perkin Elmer, USA] was added at 0.5 nM and the fluorescence emission at 615 nm/665 nm [excitation at 340 nm] was measured. The compounds were initially screened at 100 nM, 1 μM and 10 μM concentrations. The potent compounds with >25% inhibition at 1 μM of TrkA were taken for the full dose response studies. The final DMSO concentration in the assay was […]. For IC50 determination, ⅓^rd serial dilution was made from the 20 mM DMSO stock solution. 2 μl of these were transferred to the test wells containing 20 μl reaction mixture [Total reaction volume 22 μl]. The fluorescence was measured in Perkin Elmer Wallac 1420 Multilabel Counter Victor 3. The IC50 was determined by fitting the dose response data to a sigmoidal curve fitting equation using GraphPad Prism software version 5.

[3] = read-out: TrkA inhibition in-vitro IC50
[4] = both bounds given in nm, read-out: TrkA inhibitory activity in-vitro IC50

T1 sequence (P04629 33-796): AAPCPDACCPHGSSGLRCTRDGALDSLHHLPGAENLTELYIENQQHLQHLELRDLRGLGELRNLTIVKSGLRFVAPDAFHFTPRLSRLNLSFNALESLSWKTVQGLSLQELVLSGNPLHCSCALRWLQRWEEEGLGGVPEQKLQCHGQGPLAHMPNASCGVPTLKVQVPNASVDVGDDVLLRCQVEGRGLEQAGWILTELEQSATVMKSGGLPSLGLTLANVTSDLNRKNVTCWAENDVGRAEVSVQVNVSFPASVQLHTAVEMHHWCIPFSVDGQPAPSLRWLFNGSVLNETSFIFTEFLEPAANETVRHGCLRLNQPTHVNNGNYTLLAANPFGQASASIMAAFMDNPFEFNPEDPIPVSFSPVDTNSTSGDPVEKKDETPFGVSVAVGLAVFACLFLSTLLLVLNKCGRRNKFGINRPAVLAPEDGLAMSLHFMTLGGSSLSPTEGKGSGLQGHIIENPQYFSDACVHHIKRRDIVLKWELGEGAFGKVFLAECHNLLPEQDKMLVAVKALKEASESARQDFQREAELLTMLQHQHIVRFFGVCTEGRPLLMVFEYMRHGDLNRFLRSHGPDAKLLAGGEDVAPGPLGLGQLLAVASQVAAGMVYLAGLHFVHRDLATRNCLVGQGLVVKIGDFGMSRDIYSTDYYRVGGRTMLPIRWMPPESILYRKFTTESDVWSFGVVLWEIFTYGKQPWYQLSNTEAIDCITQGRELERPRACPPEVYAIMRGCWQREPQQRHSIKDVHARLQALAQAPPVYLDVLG

| Structure (SMILES) | half-life at 1 μM [1] [min] | IC50 [2, 3] [nM] | also measured |
| --- | --- | --- | --- |
| CCN(C)S(=O)(=O)NC(=O)c1cnn2ccc(N3CCCC3c3cc(F)cc4c3OCCCO4)cc12 (single isomer, unassigned) [Example 96, N-(N-ethyl-N-methylsulfamoyl)-5-(2-(8-fluoro-3,4-dihydro-2H-benzo[b][1,4]dioxepin-6-yl)pyrrolidin-1-yl)pyrazolo[1,5-a]pyridine-3-carboxamide] | > 80 |  |  |
| CC1(S(=O)(=O)NC(=O)c2cnn3ccc(N4CCC[C@@H]4c4cc(F)ccc4F)cc23)CC1 [Example 38, (R)-5-(2-(2,5-difluorophenyl)pyrrolidin-1-yl)-N-((1-methylcyclopropyl)sulfonyl)pyrazolo[1,5-a] pyridine-3-carboxamide] | > 80 |  |  |
| Cc1ccccc1S(=O)(=O)NC(=O)c1cnn2ccc(N3CCC[C@@H]3c3cc(F)ccc3F)cc12 [Example 39, (R)-5-(2-(2,5-difluorophenyl)pyrrolidin-1-yl)-N-(o-tolylsulfonyl)pyrazolo[1,5-a]pyridine-3-carboxamide] | > 80 |  |  |
| COc1ccc(F)cc1[C@H]1CCCN1c1ccn2ncc(C(=O)NS(=O)(=O)C(C)(C)C)c2c1 [Example 42, (R)-N-(tert-butylsulfonyl)-5-(2-(5-fluoro-2-methoxyphenyl)pyrrolidin-1-yl)pyrazolo[1,5-a] pyridine-3-carboxamide] | > 80 |  |  |
| CCN(CC)S(=O)(=O)NC(=O)c1cnn2ccc(N3CCC[C@@H]3c3cc(F)ccc3OCCF)cc12 [Example 88, (R)-N-(N,N-diethylsulfamoyl)-5-(2-(5-fluoro-2-(2-fluoroethoxy)phenyl)pyrrolidin-1-yl)pyrazolo[1,5-a]pyridine-3-carboxamide] |  | ≤ 50 |  |
| O=C(NS(=O)(=O)N1CCCCC1)c1cnn2ccc(N3CCC[C@@H]3c3cc(F)ccc3F)cc12 [Example 89, (R)-5-(2-(2,5-difluorophenyl)pyrrolidin-1-yl)-N-(piperidin-1-ylsulfonyl)pyrazolo[1,5-a] pyridine-3-carboxamide] |  | ≤ 50 |  |
| CCN(C)S(=O)(=O)NC(=O)c1cnn2ccc(N3CCC[C@@H]3c3cc(F)cc(F)c3OC)cc12 [Example 90, (R)-5-(2-(3,5-difluoro-2-methoxyphenyl)pyrrolidin-1-yl)-N-(N-ethyl-N-methylsulfamoyl) pyrazolo[1,5-a]pyridine-3-carboxamide] |  | ≤ 50 |  |
| O=C(NS(=O)(=O)N1CC[C@H](O)C1)c1cnn2ccc(N3CCC[C@@H]3c3cc(F)ccc3F)cc12 [Example 93, 5-((R)-2-(2,5-difluorophenyl)pyrrolidin-1-yl)-N-(((S)-3-hydroxypyrrolidin-1-yl)sulfonyl)pyrazolo[1,5-a] pyridine-3-carboxamide] |  |  | IC50 [2, 4]: 100 to 500 nM |
| CCN(C)S(=O)(=O)NC(=O)c1cnn2ccc(N3CCC[C@@H]3c3cc(F)cc(F)c3OCCF)cc12 [Example 94, (R)-5-(2-(3,5-difluoro-2-(2-fluoroethoxy)phenyl)pyrrolidin-1-yl)-N-(N-ethyl-N-methylsulfamoyl)pyrazolo[1,5-a]pyridine-3-carboxamide] |  | ≤ 50 |  |
| CCN(C)S(=O)(=O)NC(=O)c1cnn2ccc(N3C[C@@H](F)C[C@@H]3c3cccc(F)c3)c(F)c12 [Example 102, N-(N-ethyl-N-methylsulfamoyl)-4-fluoro-5-((2R,4S)-4-fluoro-2-(3-fluorophenyl)pyrrolidin-1-yl)pyrazolo[1,5-a]pyridine-3-carboxamide] | > 80 |  |  |
| CCN(C)S(=O)(=O)NC(=O)c1cnn2ccc(N3CCC[C@@H]3c3cc(F)cc(O[C@@H]4CCOC4)c3)cc12 [Example 106, N-(N-ethyl-N-methylsulfamoyl)-5-((R)-2-(3-fluoro-5-(((R)-tetrahydrofuran-3-yl)oxy)phenyl)pyrrolidin-1-yl)pyrazolo[1,5-a]pyridine-3-carboxamide] | > 80 |  |  |
| NS(=O)(=O)NC(=O)c1cnn2ccc(N3C[C@@H](F)C[C@@H]3c3cccc(F)c3)c(F)c12 [Example 107, 4-fluoro-5-((2R,4S)-4-fluoro-2-(3-fluorophenyl)pyrrolidin-1-yl)-N-sulfamoylpyrazolo[1,5-a]pyridine-3-carboxamide] | > 80 |  |  |
| CC(C)(C)S(=O)(=O)NC(=O)c1cnn2ccc(N3C[C@@H](F)C[C@@H]3c3cccc(F)c3)c(F)c12 [Example 121, N-(tert-butylsulfonyl)-4-fluoro-5-((2R,4S)-4-fluoro-2-(3-fluorophenyl)pyrrolidin-1-yl)pyrazolo[1,5-a]pyridine-3-carboxamide] | > 80 |  |  |
| CC(C)(C)S(=O)(=O)NC(=O)c1cnn2ccc(N3C[C@@H](F)C[C@@H]3c3cc(F)ccc3F)cc12 [Example 128, Sodium (tert-butylsulfonyl)(5-((2R,4S)-2-(2,5-difluorophenyl)-4-fluoropyrrolidin-1-yl)pyrazolo[1,5-a]pyridine-3-carbonyl)amide] |  | ≤ 50 |  |
| CC(C)(C)S(=O)(=O)NC(=O)c1cnn2ccc(N3CCC[C@@H]3c3cc(F)cc4c3OCCO4)cc12 [Example 130, Sodium (R)-(tert-butylsulfonyl)(5-(2-(7-fluoro-2,3-dihydrobenzo[b][1,4]dioxin-5-yl)pyrrolidin-1-yl)pyrazolo[1,5-a]pyridine-3-carbonyl)amide] |  |  | IC50 [2, 4]: 100 to 500 nM |
| CC(C)(C)S(=O)(=O)NC(=O)c1cnn2ccc(N3CC(F)(F)CC3c3cc(F)ccc3F)cc12 (centres unmarked) [Example 133, Sodium (tert-butylsulfonyl)(5-(2-(2,5-difluorophenyl)-4,4-difluoropyrrolidin-1-yl)pyrazolo[1,5-a]pyridine-3-carbonyl)amide] |  |  | IC50 [2, 4]: 100 to 500 nM |
| CC1(S(=O)(=O)NC(=O)c2cnn3ccc(N4CCC[C@@H]4c4cc(F)ccc4F)cc23)CC1 [Example 134, Sodium (R)-(5-(2-(2,5-difluorophenyl)pyrrolidin-1-yl)pyrazolo[1,5-a]pyridine-3-carbonyl)((1-methylcyclopropyl)sulfonyl)amide] |  | 50 to 100 |  |
| CC(C)(C)S(=O)(=O)NC(=O)c1cnn2ccc(N3CC(F)C[C@@H]3c3cc(F)ccc3F)cc12 (stereo partly drawn) [Example 135, Sodium (tert-butylsulfonyl)(5-((2R)-2-(2,5-difluorophenyl)-4-fluoropyrrolidin-1-yl)pyrazolo[1,5-a]pyridine-3-carbonyl)amide] |  |  | IC50 ([2]; read-out: TrkA inhibitory activity in-vitro IC50): 1000 to 10000 nM |
| CC(C)(C)S(=O)(=O)NC(=O)c1cnn2ccc(N3C[C@@H](F)C[C@@H]3c3cccc(F)c3)c(F)c12 [Example 137, Sodium (tert-butylsulfonyl)(4-fluoro-5-((2R,4S)-4-fluoro-2-(3-fluorophenyl)pyrrolidin-1-yl)pyrazolo[1,5-a]pyridine-3-carbonyl)amide] |  | ≤ 50 |  |
| CN(C)S(=O)(=O)NC(=O)c1cnn2ccc(N3CCC[C@@H]3c3cccc(F)c3)c(F)c12 [Example 138, Sodium (R)-(N,N-dimethylsulfamoyl)(4-fluoro-5-(2-(3-fluorophenyl)pyrrolidin-1-yl)pyrazolo[1,5-a]pyridine-3-carbonyl)amide] |  | ≤ 50 |  |
| CCN(C)S(=O)(=O)NC(=O)c1cnn2ccc(N3CCC[C@@H]3c3cc(F)ccc3OC3CCOC3)cc12 (stereo partly drawn) [Example 139, Sodium (N-ethyl-N-methylsulfamoyl)(5-((2R)-2-(5-fluoro-2-((tetrahydrofuran-3-yl)oxy)phenyl)pyrrolidin-1-yl)pyrazolo[1,5-a]pyridine-3-carbonyl)amide] |  | ≤ 50 |  |
| Cc1ccccc1S(=O)(=O)NC(=O)c1cnn2ccc(N3CCC[C@@H]3c3cc(F)ccc3F)cc12 [Example 140, Sodium (R)-(5-(2-(2,5-difluorophenyl)pyrrolidin-1-yl)pyrazolo[1,5-a]pyridine-3-carbonyl)(o-tolylsulfonyl)amide] |  | ≤ 50 |  |
| CC(C)S(=O)(=O)NC(=O)c1cnn2ccc(N3C[C@@H](F)C[C@@H]3c3cccc(F)c3)c(F)c12 [Example 141, Sodium (4-fluoro-5-((2R,4S)-4-fluoro-2-(3-fluorophenyl)pyrrolidin-1-yl)pyrazolo[1,5-a]pyridine-3-carbonyl) (isopropylsulfonyl)amide] |  | ≤ 50 |  |
